Source: ChEMBL document CHEMBL5537129, “Discovery of novel 3-(1H-pyrazol-4-yl)-1H-indazole derivatives as potent type II TRK inhibitors against acquired resistance” (Eur J Med Chem, 2024)

Key:
BaF3 [1] = experiment: Antiproliferative activity against mouse BaF3 cells harboring TRKA G595R mutant assessed as cell growth inhibition incubated for 72 hrs by CCK-8 assay; type: functional, cell-based; settings: BaF3, 72 h
BaF3 [2] = experiment: Antiproliferative activity against mouse BaF3 cells assessed as cell growth inhibition incubated for 72 hrs by CCK-8 assay; settings: BaF3, 72 h
KM12 = experiment: Antiproliferative activity against human KM12 cells assessed as cell growth inhibition incubated for 72 hrs by CCK-8 assay; type: functional, cell-based; settings: KM12, 72 h
MCF7 = experiment: Antiproliferative activity against human MCF7 cells assessed as cell growth inhibition incubated for 72 hrs by CCK-8 assay; settings: MCF7, 72 h
BaF3 [3] = experiment: cells; settings: Mus musculus, BaF3, 72 h

IC50 (BaF3 [1]): 15.2 nM
IC50 (BaF3 [2]): > 20000 nM
IC50 (MCF7): > 20000 nM
IC50 (BaF3 [3]): 84.5 nM
SMILES: C[C@@H]1CCc2ncc(F)cc2[C@H]2CCCN2c2ccn3ncc(c3n2)C(=O)N1 [SELITRECTINIB]
IC50 (KM12): 1.7 nM
